{"source": "patent US20040039062A1", "about": "“Urea, ruminally synthesizable mainly to microbial crude protein” (Agri-Nutrients Technology Group, Inc., priority 2002, published 2004)", "key": {"[1]": {"assay": "Water solubility test of coated urea (5 gram sample in 200 grams distilled water at 39° C., urea dissolved after 10 hours)", "assay_type": "physicochemical", "description": "The mixture was swirled briefly only when the sample was added and at the end of 10 hours. The percent of the urea dissolved in 10 hours was measured to be 45 by weight."}, "Fresh rumen fluid": {"system": "Fresh rumen fluid", "assay": "In-vitro urea conversion test: ruminal synthesis of urea to microbial crude protein (MCP) in rumen fluid", "parameters": "species or system heifer", "description": "A series of urea conversion in-vitro tests were arranged using the following materials: (1) Fresh rumen fluid withdrawn via a pump through a strainer from a heifer receiving no feed for the prior two days. (2) Simulated Saliva composition of E. I. McGougal in Biochemical Journal, Vol. 43, page 106. (3) Cellulose energy source, Whatman Chromedia Microgranular Cellulose, free from other nutrient compounds. […] The in-vitro tests were run with each sample in a 250 ml Erlenmeyer flask receiving the ingredients listed as follows: [table] The test flasks were placed in a constant temperature bath operating at 39° C. Carbon dioxide was used to displace the air in the flasks. Samples amounting to 10 grams were withdrawn on an accurate time schedule with the air in the sample container replaced by carbon dioxide. The samples were immediately treated with 1 percent mercuric chloride to terminate microbial activity in the samples. The samples were analyzed for total nitrogen, ammonia nitrogen, and […] by difference."}}}
{"smiles": "NC(N)=O", "note": "[Test No. 6, urea]", "values": [{"measurement": "urea water solubilities at 39° C. (in words)", "setting": "[1]", "result": "high"}, {"measurement": "synthesis efficiencies to MCP (in words)", "setting": "Fresh rumen fluid; after 8 hours", "result": "low"}, {"measurement": "Urea Synthesized to MCP", "setting": "Fresh rumen fluid; rumen fluid, 8 hours", "result": 3.6, "unit": "%"}]}
